Results published in patent US11103510B2, “JAK1 pathway inhibitors for the treatment of cytokine-related disorders” (Incyte Corporation, priority 2018, dated 2021).

Assays:
[1] = test system: Con A-induced cytokine release syndrome (CRS) in BALB/c mice; test: Concanavalin A induced cytokine release syndrome in BALB/c mice; type: in vivo; conditions: plasma 2 h after Con A
Text: Concanavalin A (Con A) is a selective T lymphocyte mitogen resulting in broad inflammatory cytokine release and proliferation of CD4 and CD8 T-cells. Injection of Con-A has been shown in the literature to induce cytokine release syndrome and serves as a model with which to test the efficacy of cytokine release syndrome therapies (Gantner, F. at al. Hepatology, 1995, 21, 190-198). The mitogen response is dependent on expression of the T-cell receptor.
In particular, this study tests the ability of a selective JAK1 inhibitor (e.g., Compound 1, Table 1) to reduce or ameliorate Con A-induced cytokine release syndrome (CRS) in BALB/c mice. A total of forty (40) BALB/c mice were used for this one day study. Animals were weighed prior to test article dosing, and monitored for the duration of the experiment. On day 0, Sixty (60) minutes prior to Con A administration, vehicle (0.5% methylcellulose) or Compound 1 (60 and 120 mg/kg) was given in a single dose via oral gavage (PO) to animals in groups 2-4 as detailed in Table 2A. Group 1 served as naïve controls and were not treated. Following the […] pre-treatment with vehicle or Compound 1, animals in Groups 2-4 were administered 20 mg/kg of Con A via intravenous injection (IV) in order to induce CRS. All animals were euthanized via CO2 inhalation two hours after Con A administration. Whole blood was collected via cardiac puncture into K2EDTA tubes and stored on ice until plasma processing occurs. Plasma was collected and stored at −80° C. until cytokine multiplex was performed.
Animals were weighed and Con-A dose (20 mg/kg) calculated.
Vehicle and Compound 1 were prepared at corresponding doses.
On day 0, animals were dosed with vehicle or Compound 1, as in Table 2A. Group 1 served as the naïve controls and were not treated. Group 2 received a single dose of vehicle (0.5% methylcellulose) via PO at 0.1 mL/20 g. Group 3 received a single dose of 60 mg/kg Compound 1 via PO at 0.1 mL/20 g. Group 4 received a single dose of 120 mg/kg Compound 1 via PO at 0.1 mL/20 g.
Sixty (60) minutes after test article administration, Con-A was administered via IV injection to Groups 2-4. Each animal in Groups 2-4 received 20 mg/kg of Con-A in 0.2 mL.
After the administration of Con-A, animals were closely monitored for signs of distress due to the resulting systemic inflammatory response.
Two hours after Con-A administration all animals were euthanized by CO2 inhalation.
Upon sacrifice, whole blood was collected from each animal via cardiac puncture into K2EDTA tubes. The blood was centrifuged and the plasma collected in cryovials. The plasma was frozen and stored at −80° C. for the downstream cytokine multiplex assay.
Plasma samples are thawed on ice and used for a cytokine multiplex according to the manufacturer's protocol (ThermoFisher).
An unpaired one-way analysis of variance (ANOVA) incorporating Sidak's multiple test comparison was performed using GraphPad Prism (version 4.00; GraphPad Software, San Diego Calif., USA). A value of p<0.05 was considered significant.

[2] = test system: anti-CD3 antibody-induced cytokine release syndrome (CRS) in BALB/c mice; test: Anti-CD3 antibody-induced cytokine release syndrome in BALB/c mice; type: in vivo; conditions: 60 and 120 mg/kg PO 1 h before anti-CD3 (10 μg IV); plasma 1.5 h after anti-CD3; FIG. 1
Text: JAK1 pathway inhibitors can be tested for efficacy against CRS according to an in vivo assay described in Ferran, C. et al. Clin. Exp. Immunol. 1991, 86, 537-543. Specifically, this study can test the ability of a compound to reduce or ameliorate anti-CD3 antibody-induced cytokine release syndrome (CRS) in BALB/c mice. The antibody, clone 145-2C11, is an immunoglobin G (IgG) hamster MoAb that is specific for the ε chain of the CD3 murine molecule (Léo, O. et al., Proc. Natl. Acad. Sci. USA, 1987, […], 1374). Treatment with 145-2C11 induces high affinity IL-2 receptors at the surface of spleen T-cells and results in a release of some cytokines such as tumor necrosis factor (TNF-α), IL-2, IL-3, IL-6, and interferon-gamma (IFN-γ) (Ferran, et al. Eur. J. Immunol. 1990, 20, 509-515 and Algre, M. et al., Eur. J. Immunol., 1990, 707). […]
The main objective of this study was to test the ability of a JAK1 pathway inhibitor (e.g., Compound 1) to reduce or ameliorate anti-CD3 antibody-induced cytokine release syndrome (CRS) in BALB/c mice. […] Animals were weighed prior to test article dosing, and monitored for the duration of the experiment. […]
After the administration of the anti-CD3 antibody, animals were closely monitored for signs of distress due to the resulting systemic inflammatory response. […]

[3] = target: human JAK1 (a.a. 837-1142) (Homo sapiens, UniProt P23458); test: In vitro JAK kinase assay (HTRF), JAK1; type: biochemical; conditions: 1 mM ATP
Description: (§1) The catalytic activity of JAK1, JAK2 or JAK3 was assayed by measuring the phosphorylation of a biotinylated peptide. The phosphorylated peptide was detected by homogenous time resolved fluorescence (HTRF). […] Reactions are carried out at room temperature for 1 hour and then stopped with 20 μL 45 mM EDTA, 300 nM SA-APC, 6 nM Eu-Py20 in assay buffer (Perkin Elmer, Boston, Mass.). Binding to the Europium labeled antibody takes place for 40 minutes and HTRF signal was measured on a Fusion plate reader (Perkin Elmer, Boston, Mass.).

[4] = target: human JAK2 (a.a. 828-1132) (Homo sapiens (Human), UniProt O60674); test: In vitro JAK kinase assay (HTRF), JAK2, for JAK2/JAK1 ratio; type: biochemical; conditions: IC50 ratio, 1 mM ATP
Sequence of human JAK2 (a.a. 828-1132) (O60674 828-1132): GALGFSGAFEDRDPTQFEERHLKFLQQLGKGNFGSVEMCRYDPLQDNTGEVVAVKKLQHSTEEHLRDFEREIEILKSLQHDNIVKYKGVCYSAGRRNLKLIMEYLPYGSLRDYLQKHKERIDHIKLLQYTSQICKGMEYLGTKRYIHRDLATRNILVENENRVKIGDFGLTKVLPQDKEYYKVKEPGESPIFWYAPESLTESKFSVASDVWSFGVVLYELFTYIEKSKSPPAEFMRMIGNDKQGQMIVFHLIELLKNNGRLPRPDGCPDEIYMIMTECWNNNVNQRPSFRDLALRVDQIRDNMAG
Description: as §1

Compound: N#CCC1(n2cc(-c3ncnc4[nH]ccc34)cn2)CN(C2CCN(C(=O)c3ccnc(C(F)(F)F)c3F)CC2)C1 [Compound 1, {1-{1-[3-Fluoro-2-(trifluoromethyl)isonicotinoyl]piperidin-4-yl}-3-[4-(7H-pyrrolo[2,3-d]pyrimidin-4-yl)-1H-pyrazol-1-yl]azetidin-3-yl}acetonitrile]
- IL-6 concentrations within the blood compartment ([1]; 60 and 120 mg/kg PO 60 min before Con A (20 mg/kg IV), FIG. 2A): dose-dependently inhibited
- IFNγ (T-cell derived cytokine) ([1]; 60 and 120 mg/kg PO before Con A, FIG. 2B): significantly inhibited
- GM-CSF (T-cell derived cytokine) ([1]; 60 and 120 mg/kg PO before Con A, FIG. 2C): significantly inhibited
- IL-12 (monocyte and/or macrophage derived cytokine) ([1]; 60 and 120 mg/kg PO before Con A, FIG. 3A): Statistically significant dose-dependent IL-12 reduction
- IL-1β (monocyte and/or macrophage derived cytokine) ([1]; 60 and 120 mg/kg PO before Con A, FIG. 3B): trends for treatment effect
- IL-18 (monocyte and/or macrophage derived cytokine) ([1]; 60 and 120 mg/kg PO before Con A, FIG. 3C): trends for treatment effect
- IL-5 ([1]; 60 and 120 mg/kg PO before Con A, FIG. 4): unaffected
- IL-6 concentrations within the blood compartment [2]: dose-dependently inhibited
- IC50 [3]: < 10 nM
- JAK2/JAK1 [4]: >10
